Series [1] deals with T1, 5-hydroxytryptamine receptor 2C (Homo sapiens, UniProt P28335).
T1 sequence (P28335 whole entry): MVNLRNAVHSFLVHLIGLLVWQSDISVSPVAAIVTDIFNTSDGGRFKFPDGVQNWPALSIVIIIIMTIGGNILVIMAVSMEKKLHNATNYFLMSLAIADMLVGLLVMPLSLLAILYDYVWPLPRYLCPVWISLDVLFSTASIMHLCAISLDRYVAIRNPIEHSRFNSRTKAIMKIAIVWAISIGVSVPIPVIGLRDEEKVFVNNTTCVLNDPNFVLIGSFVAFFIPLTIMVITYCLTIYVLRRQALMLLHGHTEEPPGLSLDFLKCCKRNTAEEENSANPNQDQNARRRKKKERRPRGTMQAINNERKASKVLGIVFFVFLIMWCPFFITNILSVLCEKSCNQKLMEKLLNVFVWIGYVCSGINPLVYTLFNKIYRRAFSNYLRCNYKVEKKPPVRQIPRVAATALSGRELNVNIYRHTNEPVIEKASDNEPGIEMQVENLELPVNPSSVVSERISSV
The series can be described thus: Displacement of [3H]mesulergine from 5HT2C receptor expressed in HEK293 cells. In kind it is cell-based. (In a radioligand displacement assay an active substance lowers the binding of a labelled ligand.)

Series [2] addresses T2, 5-hydroxytryptamine receptor 2A (Homo sapiens, UniProt P28223). The series can be described thus: Displacement of [3H]ketanserin from 5HT2A receptor expressed in HEK293 cells. Format: cell-based.
Series [3] has as its target T3, 5-hydroxytryptamine receptor 2B (Homo sapiens, UniProt P41595). Briefly: Displacement of [3H]5-HT from 5HT2B receptor expressed in HEK293 cells. Format: cell-based.
Series [4] can be described thus: Blood clearance in iv dosed rat. The note with it: whole blood. Format: ADME, organism-based.
Series [5] in a line: Volume of distribution in iv dosed rat. Format: ADME, organism-based. The note with it: in vivo, read-out: Vdss.
A short description of series [6]: Oral bioavailability in po dosed rat. Format: ADME, organism-based. To be noted: in vivo.
In series [7] the target is T4, 5-hydroxytryptamine receptor 2C (Homo sapiens) (UniProt P28335).
T4 sequence (whole entry): T1 sequence (P28335 whole entry)
Briefly: Agonist activity at 5HT2C receptor expressed in HEK293 cells assessed as intracellular calcium mobilisation up to 10 uM. In kind it is functional, cell-based.

For series [8], the target named is T2, 5-hydroxytryptamine receptor 2A. The series can be described thus: Agonist activity at 5HT2A receptor expressed in HEK293 cells assessed as intracellular calcium mobilisation up to 10 uM. In kind it is functional, cell-based. (In general: Calcium assays in cells follow changes in intracellular calcium, usually with a dye or a luminescent sensor.)
The target of series [9] is T3, 5-hydroxytryptamine receptor 2B. The series can be described thus: Agonist activity at 5HT2B receptor expressed in HEK293 cells assessed as intracellular calcium mobilisation up to 10 uM. In kind it is functional, cell-based.
Series [10] deals with T4, 5-hydroxytryptamine receptor 2C (Homo sapiens). Briefly: Antagonist activity at 5HT2C receptor expressed in HEK293 cells assessed as blockade of 5-hydroxytryptamine-induced intracellular calcium mobilisation. Format: functional, cell-based.

Activity calls are given as the source filed them. The calls are words filed in the database; no cut-off is given here.

T3 sequence (P41595 whole entry): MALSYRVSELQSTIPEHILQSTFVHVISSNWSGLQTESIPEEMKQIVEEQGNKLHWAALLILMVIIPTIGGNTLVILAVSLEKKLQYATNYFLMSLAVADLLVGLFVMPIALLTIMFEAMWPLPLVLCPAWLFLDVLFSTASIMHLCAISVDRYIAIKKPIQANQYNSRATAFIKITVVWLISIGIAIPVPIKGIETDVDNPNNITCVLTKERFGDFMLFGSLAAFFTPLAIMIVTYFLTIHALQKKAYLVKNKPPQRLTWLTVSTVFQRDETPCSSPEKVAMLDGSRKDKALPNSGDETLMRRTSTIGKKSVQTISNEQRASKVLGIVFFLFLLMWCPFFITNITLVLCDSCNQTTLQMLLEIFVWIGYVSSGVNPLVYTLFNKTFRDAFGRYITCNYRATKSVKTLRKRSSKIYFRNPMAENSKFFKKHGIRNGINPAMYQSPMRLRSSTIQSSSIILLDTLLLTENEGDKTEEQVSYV
T2 sequence (P28223 whole entry): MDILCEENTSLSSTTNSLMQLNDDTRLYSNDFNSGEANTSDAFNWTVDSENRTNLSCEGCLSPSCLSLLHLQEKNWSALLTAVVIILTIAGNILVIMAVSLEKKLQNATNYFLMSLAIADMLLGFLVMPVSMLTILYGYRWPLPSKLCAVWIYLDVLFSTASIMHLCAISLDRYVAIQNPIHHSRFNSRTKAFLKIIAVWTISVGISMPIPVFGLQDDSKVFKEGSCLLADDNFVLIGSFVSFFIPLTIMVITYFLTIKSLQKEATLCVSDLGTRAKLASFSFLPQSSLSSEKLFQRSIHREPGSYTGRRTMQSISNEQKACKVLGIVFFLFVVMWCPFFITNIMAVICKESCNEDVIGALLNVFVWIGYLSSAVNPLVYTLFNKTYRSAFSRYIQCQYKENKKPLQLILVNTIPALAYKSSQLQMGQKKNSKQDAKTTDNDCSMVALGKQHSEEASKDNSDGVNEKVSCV

What is called Ki is a measure of affinity in units of concentration, obtained from inhibition or displacement. Higher therefore signals lower affinity. What is called clearance is the volume of plasma or blood freed of the substance per unit of time. Read a high clearance as a high capacity for elimination. By bioavailability is commonly meant dose-corrected exposure relative to a reference, in per cent. High values mean good availability, low ones poor availability. Take `COc1ccc(N2Cc3cc(Cl)c(Cl)c(C)c3C2=O)cc1OCCN1CCC(C)CC1`: the Ki in series [1] is 2.51 nM; in [2], 398 nM; in series [3], 100 nM. In [4], this molecule gave a clearance of 16 mL/min/kg. Further, the Vd in series [5] came to 6.8 L/kg. In addition, in series [6], the bioavailability came out at 43%. The result in [7], in [8] and in [9] was inactive.
`COc1ccc(N2Cc3cc(C)cc(C)c3C2=O)cc1OCCN1CCC(C)CC1`: the Ki in [1] is 3.16 nM; in [2], 1260 nM; in [3] it was 316 nM. Moreover, the clearance in series [4] stood at 59 mL/min/kg. Further, the Vd in series [5] stood at 7.8 L/kg. In [6], this molecule came in with a bioavailability of 10%. In addition, the outcome in [7], in [8] and in [9] was inactive.
`COc1ccc(N2Cc3cc(Cl)c(C)c(Cl)c3C2=O)cc1OCCN1CCC(C)CC1`: the Ki in series [1] was 1.26 nM; in series [2], 631 nM; in series [3], 63.1 nM. Also, the clearance in series [4] came out at 43 mL/min/kg. The Vd in series [5] was determined as 9.1 L/kg. Also, in [6], the bioavailability came out at 24%. The outcome in series [7], in series [8] and in series [9] was inactive.
For `COc1ccc(N2Cc3c(F)ccc(C(F)(F)F)c3C2=O)cc1OCCN1CCC(C)CC1`, the figures for the Ki in series [1], in [2] and in [3] were 6.31 nM, more than 1000 nM and more than 1000 nM, respectively. Further, in [4], the clearance came out at 48 mL/min/kg. In addition, the Vd in series [5] was 1.9 L/kg. In series [6], this molecule registered a bioavailability of 4%. The result in [7], in [8] and in series [9] was inactive.
By pKb is commonly meant the Kb on a negative log10 scale, so that one unit is a factor of ten. On to `COc1ccc(N2Cc3cc(Cl)cc(Cl)c3C2=O)cc1OCCN1CCC(C)CC1`, for which the Ki is 1.58 nM in [1], 398 nM in series [2] and 200 nM in [3]. Further, in [4], the clearance stood at 50 mL/min/kg. Besides, the Vd in series [5] came out at 5.8 L/kg. In addition, the outcome in [7], in [8] and in series [9] was inactive. In series [10], the negative-log Kb (pKb) stood at 8.8.
Consider `COc1ccc(N2Cc3cc(Cl)c(Cl)cc3C2=O)cc1OCCN1CCC(C)CC1`, for which the inhibitory constant (Ki) was 5.01 nM in series [1], 501 nM in series [2] and 200 nM in series [3]. Further, the clearance in series [4] was 16 mL/min/kg. Besides, the Vd in series [5] amounted to 8.5 L/kg. For the same molecule, the bioavailability in series [6] is 22%. For the same molecule, the result in [7], in series [8] and in series [9] was inactive.
Turning to `COc1ccc(N2Cc3cc(Cl)ccc3C2=O)cc1OCCN1CCCCC1`, the Ki in series [1] is 50.1 nM; in series [2], more than 6310 nM; in series [3] it was more than 10000 nM. In addition, the outcome in series [7], in series [8] and in series [9] was inactive. The pKb in series [10] worked out at 6.9.

The record behind these values is ChEMBL document CHEMBL1146272, “Isoindolone derivatives, a new class of 5-HT2C antagonists: synthesis and biological evaluation” (Bioorg Med Chem Lett, 2007).
